Experimental data reported in patent US7060501B2 (priority 2002, dated 2006).

Experiments:
[1] = biological target: organophosphate hydrolase (Brevundimonas diminuta, UniProt P0A434); details: cited from earlier work
maize callus = type: cell-based
[2] = test system: organophosphate hydrolase; type: biochemical; details: 0.5 mM amiprophos-methyl, 2 μg organophosphate hydrolase, scans every 30 seconds
[3] = test system: organophosphate hydrolase in maize callus; experiment: Coumaphos plate screen: fluorescence of maize callus under ultraviolet light; type: cell-based; details: 3 ml of 1 mg/ml coumaphos per plate, two days post-transfer
[4] = test system: transgenic OPH and control callus cells; experiment: Growth of callus cultures on haloxon plates (prospective Example 9, FIG. 6); type: cell-based; details: haloxon 1, 5, 10, 50, 100 and 500 μM, six weeks, percentage growth compared to control

Row | Compound | rate of hydrolysis by organophosphate hydrolase compared with strong alkaline / non-enzymatic hydrolysis [1] | effect on new growth from maize callus (maize callus) | other results
1 | COP(=O)(NC(C)=O)SC (stereo not drawn) [acephate] | thousands of times greater | – | –
2 | COP(=S)(NC(C)C)Oc1ccc(C)cc1[N+](=O)[O-] (stereo not drawn) [amiprophos-methyl] | – | inhibitory effect | cleavage by organophosphate hydrolase, detected by absorbance [2]: results in the absorbance of light
3 | CCOP(=S)(OCC)Oc1ccc2c(C)c(Cl)c(=O)oc2c1 [coumaphos] | – | inhibitory effect | fluorescence of non-transformed callus under ultraviolet light ([3]; non-transformed callus): did not; fluorescence of transformed callus under ultraviolet light ([3]; transformed callus): fluoresced
4 | Cc1c(Cl)c(=O)oc2cc(OP(=O)(OCCCl)OCCCl)ccc12 [haloxon] | – | – | growth of transgenic OPH cells versus control cultures [4]: ability of the transgenic OPH cells to grow at concentrations where control cultures would not
5 | CCOC(=O)CC(SP(=S)(OC)OC)C(=O)OCC (stereo not drawn) [malathion] | significantly better | – | capability of the enzyme for hydrolysis [1]: poor capability
6 | CCOP(=S)(OCC)SCn1c(=O)oc2cc(Cl)ccc21 [phosalone] | thousands of times greater | – | –
7 | CCCOP(=S)(OCCC)SCC(=O)N1CCCCC1C (stereo not drawn) [piperophos] | – | inhibitory effect | –
8 | demeton-S-methyl | thousands of times greater | – | –
